# Laboratory results taken from patent US4230719A, “Novel 2-[4-(3-methyl-2-thienyl)phenyl]propionic acid and pharmaceutically acceptable salt thereof and method for treating symptoms of inflammation and pain” (Toyama Chemical Co., Ltd., priority 1977, dated 1980).
# Assays:
# Vascular permeability [1] = assay: Vascular permeability in rat (Whittle's method); type: in vivo, rat (Wistar strain, male)
# Protocol: (ii) Vascular permeability in rat (Whittle's method)
# The test compound was orally administered to each Wistar strain male rat (weighing about 150 g) which had been fasted overnight. After 55 minutes, 0.5 ml of a 0.5% Evans Blue solution was intravenously injected. Five minutes thereafter, 0.2 ml/100 g of a 3%(V/V) acetic acid solution was intraperitoneally injected. After 60 minutes from the injection of the acetic acid solution, the rats were killed by suffocation with chloroform. After immediate laparotomy, the dye leaked into the peritoneal cavity was washed out with physiological saline. The washings were made up with the saline to 30 ml and the absorbance at 640 mμ was measured to examine the effect of the test compounds by comparing the amounts of leaked dye per rat with one another.
# [2] = system: phenylbenzoquinone writhing; assay: Analgesic activity, phenylbenzoquinone method in mouse; type: in vivo, mouse (ddY strain, male); conditions: for Frequency of writhing, mean ± S.E.: during 10 minutes
# Protocol: (i) Phenylbenzoquinone method in mouse
# The test compound was orally administered to each ddY strain male mouse (weighing 22±2 g; 8 mice per group). […] The frequency of writhing during 10 minutes from 5-minutes after the injection of phenylbenzoquinone was measured and compared with that of a control group to which a 0.5% Tween 80 solution was administered. The percent inhibition was calculated by the following equation: [formula]
# [3] = Test for ulcerogenic action (i), single dose, fasted rats; type: in vivo; conditions: rat, in vivo, po
# Protocol: (§1) (4) Test for ulcerogenic action
# (§2) After 18 hours, the rats were killed by suffocation with chloroform and their stomachs were excised. After having been filled with 5 ml of 1% formalin to fix the gastric mucosa, each stomach was incised along the greater curvature to inspect grossly the extent of injury of the gastric mucosa. The extent of injury was scored as follows: 0, no lesion; 1, petechia or erosion; 2, 1-5 small ulcers; 3, many small ulcers; 4, many large ulcers or perforation. The intestinal injury was evaluated based on the incidence of erosion.
# [4] = system: gastric mucosa and intestine; assay: as above; type: in vivo; conditions: for Gastric glandular score: 18 hours, score 0 (no lesion) to 4 (many large ulcers or perforation)
# Protocol: as §1, §2
# [5] = system: gastric mucosa and intestine; assay: Test for ulcerogenic action (ii), three doses, rats on normal meal; type: in vivo, rat (Donryu strain, male); design: scale not given here
# Protocol: (ii) In the same manner as in (i), the test compound was orally administered to each Donryu strain male rat (weighing about 180 g; 10 rats per group) which had received normal meal. The second dose was administered after 8 hours and the third dose after 16 hours from the second dose. Five hours after the last administration, the rats were treated in the same manner as in (i). The gastric mucosa injury and the intestinal injury were scored in the same manner as in (i).
# Vascular permeability [6] = assay: Vascular permeability in mice (Whittle's method); type: in vivo, mouse (ddY strain, male); conditions: for Inhibition: dye leakage
# Protocol: (i) Vascular permeability in mice (Whittle's method)
# The test compound was orally administered to each ddY strain male mouse (weighing each about 20 g). After 20 minutes, 0.1 ml/10 g of a 4%(Wt/V) solution of Pontamine Sky Blue in physiological saline was intravenously injected and 10 minutes thereafter 0.1 ml/10 g of a 0.7%(V/V) solution of acetic acid in physiological saline was injected intraperitoneally. After 30 minutes, the mice were killed by suffocation with chloroform. After immediate laparotomy, the dye leaked into the peritoneal cavity was washed out with distilled water. The washings were made up with water to 30 ml and the absorbance at 620 mμ was measured. The amount of leaked dye per 20 g of mouse weight was compared.
# [7] = system: pain threshold (brewer's yeast, hind paw); assay: Analgesic activity, Randall-Selitto method in rat; type: in vivo, rat (Wistar strain, male); conditions: for Inhibition: 100% = pain threshold raised by 150 g
# Protocol: (ii) Randall-Selitto method in rat
# After one hour, the test compound was orally administered. One hour thereafter, the pain threshold value was measured four times at a time interval of one hour. The mean value of four values obtained was taken as the pain threshold value of each group of rats. The activity of the drug was assumed to be 100% when the pain threshold value was raised by 150 g.
# [8] = system: Carrageenin-induced edema; assay: Carrageenin-induced edema; type: in vivo, rat (Donryu strain, male); conditions: Rattus norvegicus, po, mean in 5 hours, read-out: Inhibitory percent of swelling
# Protocol: (iii) Carrageenin-induced edema
# Each of the 6 Donryu strain male rats per group (each weighing about 140 g), which had been fasted overnight, was orally loaded with 4 ml of water and, after 30 minutes, the test compound was orally administered thereto. Thirty minutes thereafter, a 1%(Wt/V) solution of carrageenin in physiological saline was subcutaneously injected into the subplantar region of the left hind paw. At a time interval of one hour, starting from the end of the first hour till the end of the fifth hour after injection of carrageenin, the paw volume was measured by means of a manometer and pressure transducer. By comparison with the percent increase in swelling of the control group of rats to which a 0.5%(V/V) solution of Tween 80 had been administered, the mean inhibitory percent in 5 hours of swelling was calculated by the following equation: [formula]
# in vivo = conditions: rat, po
# Adjuvant arthritis = assay: Adjuvant arthritis; type: in vivo, rat (Sprague-Dawley strain, male); conditions: 1 mg/kg p.o./day, mean during one week
# Protocol: A suspension containing 6 mg/ml of killed and dried Mycobacterium butyricum in liquid paraffin was subcutaneously injected into the subplantar region of the left hind paw of Sprague-Dawley strain male rats (weighing 180 to 200 g) in a proportion of 0.1 ml/rat. After 14 days, the rats having inflammatory paws of similar volumes were selected and the test compound was orally administered to the rats repeatedly at the rate shown in Table 4 during one week and the mean inhibitory percent of swelling during one week was determined.
smiles,measurement,setting,value
CC(C(=O)O)c1ccc(-c2cccs2)c(Cl)c1 (stereo not drawn) [Compound C3],Inhibition,Vascular permeability [1]; 1 mg/kg p.o.,22.2%
same,Inhibition,Vascular permeability [1]; 5 mg/kg p.o.,44.6%
same,ED30,"Vascular permeability [1]; po, rat, read-out: ED30",1.7 mg/kg
same,"Frequency of writhing, mean ± S.E.",[2]; 10 mg/kg p.o.,23.1 ± 3.5
same,"Frequency of writhing, mean ± S.E.",[2]; 20 mg/kg p.o.,19.4 ± 3.7
same,"Frequency of writhing, mean ± S.E.",[2]; 40 mg/kg p.o.,12.4 ± 3.0
same,inhibition in vivo at 10 mg/kg,"[2]; Mus musculus, po, 10 min, writhing, 10 mg/kg p.o., read-out: Inhibition",2.1%
same,inhibition in vivo at 20 mg/kg,"[2]; Mus musculus, po, 10 min, writhing, 20 mg/kg p.o., read-out: Inhibition",17.8%
same,inhibition in vivo at 40 mg/kg,"[2]; Mus musculus, po, 10 min, writhing, 40 mg/kg p.o.",47.5%
same,ED50,"[2]; po, mouse, read-out: ED50",50 mg/kg
same,TD50 at 18 h,[3],27 mg/kg
same,Intestine erosion incidence,[4]; 10 mg/kg p.o.,0/7
same,Gastric glandular score,[4]; 10 mg/kg p.o.,1.18 ± 0.30
same,Intestine erosion incidence,[4]; 30 mg/kg p.o.,0/7
same,Gastric glandular score,[4]; 30 mg/kg p.o.,1.96 ± 0.42
same,Intestine erosion incidence,[4]; 100 mg/kg p.o.,4/7
same,Gastric glandular score,[4]; 100 mg/kg p.o.,3.39 ± 0.30
same,"Score, intestine, mean ± S.E.",[5]; 5 mg/kg × 3 p.o.,0.83 ± 0.21
same,"Score, stomach, mean ± S.E.",[5]; 5 mg/kg × 3 p.o.,1.67 ± 0.31
same,"Score, intestine, mean ± S.E.",[5]; 15 mg/kg × 3 p.o.,1.50 ± 0.38
same,"Score, stomach, mean ± S.E.",[5]; 15 mg/kg × 3 p.o.,2.36 ± 0.14
same,Dye leakage (P.S.B.) mean ± S.E.,Vascular permeability [6]; 5 mg/kg p.o.,289.3 ± 21.4 μg/20g
same,Dye leakage (P.S.B.) mean ± S.E.,Vascular permeability [6]; 10 mg/kg p.o.,254.2 ± 10.3 μg/20g
same,Dye leakage (P.S.B.) mean ± S.E.,Vascular permeability [6]; 20 mg/kg p.o.,226.9 ± 15.3 μg/20g
same,Inhibition,Vascular permeability [6]; 5 mg/kg p.o.,9.8%
same,Inhibition,Vascular permeability [6]; 10 mg/kg p.o.,20.8%
same,Inhibition,Vascular permeability [6]; 20 mg/kg p.o.,29.3%
same,ED30,"Vascular permeability [6]; po, mouse, read-out: ED30",20.5 mg/kg
same,Inhibition,[7]; 1 mg/kg p.o.,14.4%
same,Inhibition,[7]; 5 mg/kg p.o.,32.5%
same,Inhibition,[7]; 25 mg/kg p.o.,56.6%
same,ED50,"[7]; po, rat, read-out: ED50",16.5 mg/kg
same,inhibition in vivo at 1 mg/kg,[8]; 1 mg/kg p.o.,15.2%
same,inhibition in vivo at 5 mg/kg,[8]; 5 mg/kg p.o.,42%
same,LD50,in vivo,270 mg/kg
same,Inhibitory percent of swelling,Adjuvant arthritis,8.1%
